# Test results published in ChEMBL document CHEMBL1201862, “PubChem BioAssay data set” (2004).
# Active and inactive are the calls of the source.
# Tests used:
# [1] = viability of uninfected HEp-2 cells – cell-based, HTS, cytotoxicity control for RSV inhibitor project, dose response (AID 2410); type: functional; settings: human respiratory syncytial virus
# Melanocortin receptor 4 = Melanocortin receptor 4 (Homo sapiens, UniProt P32245); type: functional, cell-based;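 note: Cell-based assay with luminescence read-out, confirmatory dose-response testing for agonist activity of biased ligands at MC4R; human U2OS cells with tagged receptor and beta-arrestin; potency of agonists that increase receptor coupling to beta-arrestin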
# [2] = target: T1, ATP-dependent translocase ABCB1 (Homo sapiens, UniProt P08183); experiment: inhibition of BCRP-mediated JC-1 efflux – Ig-MXP3 cells, flow cytometry, set 2, dose response (AID 504566); type: functional; settings: read-out: EC50_MICROM_;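 note: flow cytometry median green fluorescence of retained JC-1 dye; potency of efflux pump inhibition measured as rising substrate retention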
# [3] = target: T1, ATP-dependent translocase ABCB1; experiment: P-gp JC-1 efflux blockade concentration-response – Jurkat-DNR cells, flow cytometry, set 2, dose response (AID 504569); type: functional; settings: read-out: EC50_MICROM_;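 note: potency of pump inhibitors that raise cellular JC-1 green fluorescence up to the nicardipine level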
# [4] = Luminescence Cell-Based Dose Retest to Confirm Inhibitors of Cancer Stem Cells. [Related pubchem assays (depositor defined):AID2717, AID2721]; type: functional; settings: Homo sapiens
# [5] = Fluorescence-based cell-based high throughput dose response assay for inhibitors of the interaction of nucleotide-binding oligomerization domain containing 2 (NOD2) and the receptor-interacting serine-threonine kinase 2 (RIPK2).; type: functional; settings: Homo sapiens
# Beta Lactamase = Beta Lactamase (Pseudomonas aeruginosa, UniProt Q932Y6); experiment: BLA reporter interference, concentration series – BLA reporter cells, FRET fluorescence, artefact control for NOD2-RIPK2 interaction inhibitor project, dose response (AID 651552); type: functional, cell-based
# Paired box protein Pax-8 = Paired box protein Pax-8 (Homo sapiens, UniProt Q06710); experiment: PAX8 transcriptional activity inhibition in RMG-I – RMG-I cells, luciferase, cherry-pick, dose response (AID 687027); type: functional, cell-based;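 note: luciferase reporter driven by Pax8 target thyroperoxidase promoter measured by SteadyGlo luminescence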
# [6] = general cell-killing toxicity readout – plate reader, dry powder samples, cytotoxicity control for PAX8 inhibitor project, dose response (AID 743021); type: functional, cell-based
# [7] = luciferase reporter signal suppression in cells – H4 neuroglioma cells, luminescence, dose response (AID 1990); type: functional, cell-based
# [8] = Luminescence Cell-Based Dose Response HTS to Identify Inhibitors of 5'UTR Stem-Loop Driven Prion Protein mRNA Translation in H4 Neuroglioblastoma Cells. [Related pubchem assays: 1827 (Project Summary), 1813 (Primary HTS)]; type: functional
# [9] = alpha-synuclein stem-loop luciferase translation blockers – H4 neuroglioma cells, luminescence, confirmation (AID 1988); type: functional, cell-based
# [10] = target: T2, Replicative DNA helicase DnaB (Mycobacterium tuberculosis, UniProt P9WMR3); experiment: DnaB intein splicing inhibitors, dose response, biochemical, cell-free fluorescence (AID 449749); type: functional
# T2 sequence (P9WMR3 whole entry): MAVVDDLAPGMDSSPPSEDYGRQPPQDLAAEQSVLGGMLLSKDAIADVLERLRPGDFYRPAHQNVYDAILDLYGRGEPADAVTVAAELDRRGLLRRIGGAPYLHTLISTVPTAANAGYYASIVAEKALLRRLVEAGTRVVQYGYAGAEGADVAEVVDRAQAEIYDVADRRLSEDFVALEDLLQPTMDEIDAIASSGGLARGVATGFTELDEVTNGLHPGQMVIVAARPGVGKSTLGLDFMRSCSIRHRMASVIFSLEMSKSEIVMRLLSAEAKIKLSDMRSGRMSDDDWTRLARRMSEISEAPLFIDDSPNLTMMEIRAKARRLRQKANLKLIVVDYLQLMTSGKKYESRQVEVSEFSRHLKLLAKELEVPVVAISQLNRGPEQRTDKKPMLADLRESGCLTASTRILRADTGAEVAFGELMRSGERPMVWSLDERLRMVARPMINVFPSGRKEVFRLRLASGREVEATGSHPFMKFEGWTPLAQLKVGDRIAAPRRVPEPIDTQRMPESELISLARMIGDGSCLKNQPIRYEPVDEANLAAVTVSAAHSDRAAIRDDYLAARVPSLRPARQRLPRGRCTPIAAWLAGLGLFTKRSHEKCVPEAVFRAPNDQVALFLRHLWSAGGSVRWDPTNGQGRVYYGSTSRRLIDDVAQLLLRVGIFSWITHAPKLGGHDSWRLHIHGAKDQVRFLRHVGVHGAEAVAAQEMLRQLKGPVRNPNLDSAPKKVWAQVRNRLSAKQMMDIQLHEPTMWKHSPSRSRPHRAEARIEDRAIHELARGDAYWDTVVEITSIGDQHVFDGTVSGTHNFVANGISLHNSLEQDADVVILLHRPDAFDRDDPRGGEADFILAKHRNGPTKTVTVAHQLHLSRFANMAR
# Protein RecA = target: T3, Protein RecA (Mycobacterium tuberculosis, UniProt P9WHJ3); experiment: Fluorescence Cell-Free Homogeneous Dose Retest to Identify Inhibitors of RecA-Intein Splicing Activity. [Related pubchem assays (depositor defined):AID2097, AID2223, AID489010, AID492950]; type: functional
# T3 sequence (P9WHJ3 whole entry): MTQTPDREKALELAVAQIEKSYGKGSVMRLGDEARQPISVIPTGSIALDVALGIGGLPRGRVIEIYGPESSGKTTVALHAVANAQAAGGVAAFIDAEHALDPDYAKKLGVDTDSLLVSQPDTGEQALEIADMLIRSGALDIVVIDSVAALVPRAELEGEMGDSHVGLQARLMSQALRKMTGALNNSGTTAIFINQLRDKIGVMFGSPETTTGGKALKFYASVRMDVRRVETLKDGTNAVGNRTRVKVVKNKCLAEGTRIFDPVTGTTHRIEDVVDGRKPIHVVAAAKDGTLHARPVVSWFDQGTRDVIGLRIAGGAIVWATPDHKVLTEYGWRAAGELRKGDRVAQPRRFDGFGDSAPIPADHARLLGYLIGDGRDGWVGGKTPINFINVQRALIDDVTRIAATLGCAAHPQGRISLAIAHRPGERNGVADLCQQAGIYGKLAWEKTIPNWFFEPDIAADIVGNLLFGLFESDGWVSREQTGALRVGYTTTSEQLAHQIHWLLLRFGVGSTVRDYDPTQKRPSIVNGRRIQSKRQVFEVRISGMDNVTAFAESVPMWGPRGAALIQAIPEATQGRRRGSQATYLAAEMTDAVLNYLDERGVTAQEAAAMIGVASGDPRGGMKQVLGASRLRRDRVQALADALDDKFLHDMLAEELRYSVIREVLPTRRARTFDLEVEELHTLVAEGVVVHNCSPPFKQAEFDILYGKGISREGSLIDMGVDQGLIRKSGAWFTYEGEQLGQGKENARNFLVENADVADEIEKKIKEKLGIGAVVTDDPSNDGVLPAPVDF
# INS1 = experiment: INS-1E survival protection against cytokine death – cell-based, luminescence, retest, dose response (AID 449756); type: functional; settings: Rattus norvegicus;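 note: cell death triggered by IL-1 beta plus TNF-alpha plus IFN-gamma mixture; protective hits raise ATP signal compared with cytokine alone wells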
# [11] = target: Mitochondrial peptide methionine sulfoxide reductase (Bos taurus, UniProt P54149); experiment: Absorbance-based biochemical high throughput dose response assay for activators of Methionine sulfoxide reductase A (MsrA).; type: functional
# [12] = target: T4, Histone-lysine N-methyltransferase NSD2 (Homo sapiens, UniProt O96028); type: biochemical
# T4 sequence (O96028 whole entry): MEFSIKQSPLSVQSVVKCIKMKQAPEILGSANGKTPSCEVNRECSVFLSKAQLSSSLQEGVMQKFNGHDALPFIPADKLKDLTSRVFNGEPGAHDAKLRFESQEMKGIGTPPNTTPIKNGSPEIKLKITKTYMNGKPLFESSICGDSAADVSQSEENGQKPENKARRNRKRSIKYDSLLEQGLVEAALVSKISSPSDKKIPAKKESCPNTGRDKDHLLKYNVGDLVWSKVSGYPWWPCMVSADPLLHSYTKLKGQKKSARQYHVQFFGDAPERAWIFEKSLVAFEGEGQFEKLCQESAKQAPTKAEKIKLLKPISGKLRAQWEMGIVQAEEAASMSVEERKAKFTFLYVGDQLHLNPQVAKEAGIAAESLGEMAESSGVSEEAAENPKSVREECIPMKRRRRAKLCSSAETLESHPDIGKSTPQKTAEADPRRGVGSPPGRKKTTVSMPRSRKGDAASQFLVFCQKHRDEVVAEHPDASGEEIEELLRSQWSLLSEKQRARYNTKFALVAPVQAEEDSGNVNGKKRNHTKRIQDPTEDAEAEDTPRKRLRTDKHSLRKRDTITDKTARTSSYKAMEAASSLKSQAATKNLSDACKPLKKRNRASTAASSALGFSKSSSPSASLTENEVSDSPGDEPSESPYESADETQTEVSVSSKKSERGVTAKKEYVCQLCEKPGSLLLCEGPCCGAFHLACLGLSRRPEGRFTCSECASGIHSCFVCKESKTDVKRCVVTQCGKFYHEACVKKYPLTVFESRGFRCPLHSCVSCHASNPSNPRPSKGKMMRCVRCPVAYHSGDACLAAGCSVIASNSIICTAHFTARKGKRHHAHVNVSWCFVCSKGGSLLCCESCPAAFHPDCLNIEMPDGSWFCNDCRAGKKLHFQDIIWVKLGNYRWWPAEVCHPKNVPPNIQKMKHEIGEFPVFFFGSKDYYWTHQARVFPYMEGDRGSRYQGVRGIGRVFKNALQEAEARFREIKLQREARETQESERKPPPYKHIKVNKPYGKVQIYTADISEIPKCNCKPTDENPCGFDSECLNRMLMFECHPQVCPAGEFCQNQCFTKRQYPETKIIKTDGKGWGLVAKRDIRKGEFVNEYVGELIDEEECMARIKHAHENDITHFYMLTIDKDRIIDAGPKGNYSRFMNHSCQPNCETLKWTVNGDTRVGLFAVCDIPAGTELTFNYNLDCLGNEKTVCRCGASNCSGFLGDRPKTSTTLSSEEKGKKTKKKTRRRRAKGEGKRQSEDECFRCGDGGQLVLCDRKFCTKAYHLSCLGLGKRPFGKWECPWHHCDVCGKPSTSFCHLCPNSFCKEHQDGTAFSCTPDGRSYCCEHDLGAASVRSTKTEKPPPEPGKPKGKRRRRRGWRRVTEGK
# T1 sequence (P08183 whole entry): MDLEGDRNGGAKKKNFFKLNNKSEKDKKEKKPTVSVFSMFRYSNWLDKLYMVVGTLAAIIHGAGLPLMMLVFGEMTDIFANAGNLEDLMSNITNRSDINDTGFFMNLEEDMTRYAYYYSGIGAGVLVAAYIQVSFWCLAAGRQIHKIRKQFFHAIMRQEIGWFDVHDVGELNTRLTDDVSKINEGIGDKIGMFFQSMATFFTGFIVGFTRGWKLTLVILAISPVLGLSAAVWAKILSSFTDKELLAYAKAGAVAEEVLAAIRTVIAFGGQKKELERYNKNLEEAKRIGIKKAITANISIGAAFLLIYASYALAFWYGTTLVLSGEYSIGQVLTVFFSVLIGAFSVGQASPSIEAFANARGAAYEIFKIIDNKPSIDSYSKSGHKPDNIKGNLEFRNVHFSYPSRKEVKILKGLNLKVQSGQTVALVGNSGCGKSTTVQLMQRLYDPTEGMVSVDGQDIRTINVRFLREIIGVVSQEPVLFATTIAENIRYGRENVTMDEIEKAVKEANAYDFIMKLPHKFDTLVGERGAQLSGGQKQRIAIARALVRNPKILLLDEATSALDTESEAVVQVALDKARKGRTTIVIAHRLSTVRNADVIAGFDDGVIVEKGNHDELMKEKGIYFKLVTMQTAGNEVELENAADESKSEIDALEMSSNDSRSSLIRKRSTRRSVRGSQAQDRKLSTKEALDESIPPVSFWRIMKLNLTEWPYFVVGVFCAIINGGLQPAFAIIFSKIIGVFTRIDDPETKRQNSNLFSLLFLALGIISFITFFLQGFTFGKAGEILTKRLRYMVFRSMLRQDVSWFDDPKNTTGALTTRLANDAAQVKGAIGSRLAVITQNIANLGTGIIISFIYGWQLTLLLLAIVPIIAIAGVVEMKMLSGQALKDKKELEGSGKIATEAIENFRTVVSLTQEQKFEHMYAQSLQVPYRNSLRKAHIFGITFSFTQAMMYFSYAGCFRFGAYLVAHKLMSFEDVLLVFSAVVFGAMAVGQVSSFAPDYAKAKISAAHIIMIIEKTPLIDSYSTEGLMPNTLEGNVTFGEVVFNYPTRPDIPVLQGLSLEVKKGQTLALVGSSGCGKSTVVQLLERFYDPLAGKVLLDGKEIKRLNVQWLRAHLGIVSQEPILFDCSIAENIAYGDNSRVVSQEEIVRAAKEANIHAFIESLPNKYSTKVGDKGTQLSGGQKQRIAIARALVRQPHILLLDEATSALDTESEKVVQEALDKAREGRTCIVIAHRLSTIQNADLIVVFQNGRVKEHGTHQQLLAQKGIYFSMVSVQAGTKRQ
# Melanocortin receptor 4, sequence (P32245 whole entry): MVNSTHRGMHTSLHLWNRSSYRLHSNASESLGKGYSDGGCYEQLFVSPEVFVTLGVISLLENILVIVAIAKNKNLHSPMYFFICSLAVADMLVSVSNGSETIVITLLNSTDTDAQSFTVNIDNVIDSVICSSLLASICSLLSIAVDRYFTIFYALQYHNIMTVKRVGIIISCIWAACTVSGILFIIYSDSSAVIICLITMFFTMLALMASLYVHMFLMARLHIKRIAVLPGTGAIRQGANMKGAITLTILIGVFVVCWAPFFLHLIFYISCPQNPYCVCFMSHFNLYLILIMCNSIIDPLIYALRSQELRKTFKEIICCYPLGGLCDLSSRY
# Mitochondrial peptide methionine sulfoxide reductase, sequence (P54149 whole entry): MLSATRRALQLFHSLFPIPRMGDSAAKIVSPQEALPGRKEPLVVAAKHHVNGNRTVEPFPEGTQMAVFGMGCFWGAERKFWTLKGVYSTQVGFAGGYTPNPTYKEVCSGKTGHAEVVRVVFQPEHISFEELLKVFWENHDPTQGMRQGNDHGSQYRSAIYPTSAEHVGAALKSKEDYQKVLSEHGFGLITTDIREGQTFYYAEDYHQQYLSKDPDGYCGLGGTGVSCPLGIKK
# Paired box protein Pax-8, sequence (Q06710 whole entry): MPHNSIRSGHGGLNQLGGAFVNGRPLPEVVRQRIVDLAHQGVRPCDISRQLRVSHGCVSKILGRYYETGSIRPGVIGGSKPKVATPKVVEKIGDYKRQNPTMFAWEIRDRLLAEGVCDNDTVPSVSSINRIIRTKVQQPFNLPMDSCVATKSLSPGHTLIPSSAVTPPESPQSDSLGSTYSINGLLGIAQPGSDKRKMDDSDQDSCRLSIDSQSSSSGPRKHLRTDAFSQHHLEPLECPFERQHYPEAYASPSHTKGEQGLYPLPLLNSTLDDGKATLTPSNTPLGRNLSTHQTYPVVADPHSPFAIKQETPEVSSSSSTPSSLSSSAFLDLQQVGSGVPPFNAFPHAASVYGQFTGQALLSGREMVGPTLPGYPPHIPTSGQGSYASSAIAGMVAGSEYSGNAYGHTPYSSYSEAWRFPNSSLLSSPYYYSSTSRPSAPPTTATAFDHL
# Beta Lactamase, sequence (Q932Y6 whole entry): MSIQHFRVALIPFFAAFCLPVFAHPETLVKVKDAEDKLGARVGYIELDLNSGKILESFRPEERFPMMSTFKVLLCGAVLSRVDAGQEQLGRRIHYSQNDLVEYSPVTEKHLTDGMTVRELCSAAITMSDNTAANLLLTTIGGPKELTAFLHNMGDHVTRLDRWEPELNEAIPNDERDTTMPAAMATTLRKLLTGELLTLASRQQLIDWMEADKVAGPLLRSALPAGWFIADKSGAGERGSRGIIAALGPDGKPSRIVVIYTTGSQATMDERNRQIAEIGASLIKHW
structure (smiles),measurement,setting,value
Cc1cc(N2CCN(C(=O)c3ccco3)CC2)n2nc(-c3cccc(Cl)c3)cc2n1,CC50,[1],34.7 µM (active)
same,EC50,Melanocortin receptor 4,> 89.2 µM (inactive)
same,EC50,[2],2.24 µM (active)
same,EC50,[3],5.05 µM (inactive)
CC(C)(C)[C@H](N)C(=O)N[C@H]1CCC2C3CC=C4C[C@@H](O)CC[C@]4(C)C3CC[C@@]21C (some centres not stated),AC50,[4],3.67 µM (active)
same,IC50,[5],17.7 µM (inactive)
same,IC50,Beta Lactamase,19.5 µM (inactive)
same,AC50,Paired box protein Pax-8,9.31 µM (active)
same,AC50,[6],40.7 µM (active)
NC1=C(Br)C(=O)c2ccccc2C1=O,EC50,[7],> 60 µM (not active)
same,EC50,[8],> 60 µM (not active)
same,EC50,[9],> 120 µM (not active)
same,AC50,[10],2.95 µM (active)
same,EC50,Protein RecA,2.99 µM (active)
same,AC50,INS1,6.52 µM (active)
same,EC50,[11],61.9 µM (inactive)
same,AC50,[12],10 µM (active)
